Experimental data from patent publication US20220280543A1, “DDX17 AND NLRC4 TARGETING FOR INFLAMMATORY DISEASES” (University of Virginia Patent Foundation, priority 2019, published 2022).
Entries after “also recorded” stand apart in the source; their conditions may differ.

Assays:
RPE degeneration [1] = assay: Alu RNA induced RPE degeneration in mice, fundus images and ZO-1 staining; type: in vivo; conditions: mice, subretinal Alu RNA; fundus and ZO-1 (FIGS. 25B, 26)
Method: (§1) FIGS. 25A and 25B. NLRC4 knockdown blocks Alu RNA (SEQ ID NO: 86) induced ASC oligomerization and RPE degeneration. Human RPE cell treated with siRNA target on NLRC4 (SMARTPOOL siRNA for NLRC4: CAACUGGGCUCCUCUGUAA; SEQ ID NO: 93) and NAIP (SMARTPOOL siRNA for NAIP: GUAAAGAGCUAUAUGGAUA; SEQ ID NO: 94), 24 hours later, treated with Alu RNA (SEQ ID NO: 86 at 100 pmol) FIG. 25A. […] The band of ASC oligomers was indicated by black arrow. […] The hyperdense areas due to the RPE degeneration in fundus images and ZO-1 disorganizations in RPE sheet are indicated by white arrows.
FIG. 26. […] Wilde type of C57/B6 mice were intravitreally injected with siRNA target on Ddx17 (siRNA for Ddx17: GGCUAGAUGUGGAAGAUGU; SEQ ID NO: 95), and two days later, Nlrc4^−/−, Naip1-6^−/−, mice and Ddx17 knockdown mice were subretinally injected with Alu RNA (SEQ ID NO: 86). […] The hyperdense areas due to the RPE degeneration in fundus images and ZO-1 disorganizations in RPE sheet are indicated by white arrows.
(§2) Next, we asked whether Alu RNA (SEQ ID NO: 86) also triggered NLRC4 inflammasome activation in human RPE cells. We performed immunofluorescence staining experiments to examine whether Alu RNA (SEQ ID NO: 86) can induce NLRC4 speck formation in human RPE cells. We noticed punctate structures resembling specks of NLRC4 in human RPE cells in response to Alu RNA (SEQ ID NO: 86) treatment (FIG. 24A). […] We further investigated downstream events of NLRC4 inflammasome activation by studying NLRC4-induced ASC oligomerization, a critical step involved in caspase-1 cleavage. NLRC4 siRNA, when co-administered with Alu RNA (SEQ ID NO: 86), blocked ASC oligomerization in vitro (FIG. 25A) and RPE degeneration in vivo (FIG. 25B).
We delivered Alu RNA (SEQ ID NO: 86) or Alu RNA (SEQ ID NO: 86)+siDDX17 subretinally in WT or NLRC4 KO or NAIP1-6 KO mice and examined for RPE degeneration using fundus photos and ZO-1 staining as described previously.

ASC oligomerization [2] = assay: Alu RNA induced ASC oligomerization in THP1 cells after siRNA knockdown; type: cell-based, human; conditions: siRNA knockdown (FIG. 12A)
Description: (§3) FIGS. 12A and 12B. DDX17 knockdown blocks Alu RNA (SEQ ID NO: 86) induced ASC oligomerization and IL-1β release. FIG. 12A. siRNA mediated DDX17 knockdown (siRNA for DDX17: CCAAUCUGAUGUAUCAGGA; SEQ ID NO: 91), but not Ddx5 (siRNA for DDX5: GGAAAUUACAGUUAGAGGU; SEQ ID NO: 89) in THP1 cells, blocked Alu RNA (SEQ ID NO: 86) induced ASC oligomerization. The band of ASC oligomers were indicated by black arrow. FIG. 12B. siRNA mediated DDX17 knockdown, but not Ddx5 in THP1 cells, blocked Alu RNA (SEQ ID NO: 86) induced IL-1β release.
(§4) To further confirm that DDX17 is the sensor for NLRC4, we investigated caspase-1 cleavage by immunoblotting and IL-1β secretion by ELISA in Alu RNA (SEQ ID NO: 86) or mock treated THP1 cells and DDX17 KO BMDMs respectively.

IL-1β = assay: Alu RNA induced IL-1β release in THP1 cells after siRNA knockdown, ELISA; type: cell-based, human; conditions: siRNA knockdown (FIG. 12B)
Description: as §3, §4

ASC oligomerization [3] = assay: Alu RNA induced ASC oligomerization in human RPE cells after siRNA knockdown; type: cell-based; conditions: 24 hours later Alu RNA 100 pmol (FIG. 25A)
Method: as §1, §2

p-NLRC4 and caspase-1 = assay: Dicer1 knockdown induced inflammasome activation in BMDM, immunoblot; type: cell-based, mouse
Description: FIGS. 20A and 20B. DDX17-NLRC4-NLRP3 are required for Dicer1 knockdown induced inflammasome activation. FIG. 20A. Dicer1 knockdown (siRNA for Dicer 1: GCAGUUGUCCUAAACAGAU; SEQ ID NO: 92) causes increase of p-NLRC4 and caspase-1 activation, which were blocked in Ddx17^−/− iBMDMs. FIG. 20B. Dicer1 knockdown-induced caspase-1 cleavage was impaired in Nlrc4^−/− and Nlrp3^−/− BMDMs. The caspase-1 (p20) bands are indicated with black arrows.
We have previously shown that DICER deficiency mediated accumulation of Alu RNA induces NLRP3 inflammasome activation. So we examined whether DICER knockdown could also induce DDX17-NLRC4-NLRP3 signaling. WT and DDX17 KO BMDMs were transfected with siDICER to examine NLRC4 phosphorylation and caspase-1. […] We then determined phosphorylation of NLRC4 and caspase-1 activation in WT, NLRC4 KO and NLRP3 KO BMDMs after transfection with siDICER or sicontrol.

NLRP3/NLRC4 complex = assay: Biotin-streptavidin pulldown of biotin-labeled NRTIs with NLRC4/NLRP3, immunoblot; type: binding; conditions: immunoblot (FIG. 33)
Method: FIG. 33. NRTIs directly bind to NLRP3/NLRC4 complex in a reconstituted system. HEK293 cell were transfected with NLRC4 and NLRP3. Biotin-Labeled NRTIs (D4T, AZT) were added to the HEK cells 4 hours later, and cell pellets were collected for biotin streptavidin pulldown. Binding between NRTIs and NLRC4/NLRP3 was detected by immunoblot. […] The bands of NLRC4 and NLRP3 pulled down with biotinylated NRTI are indicated with black arrows.
Finally, we sought to investigate the mechanism through which NRTIs inhibit NLRC4 inflammasome and asked whether this is NLRP3 dependent. We transfected WT and NLRP3 KO BMDMs with flagellin to examine caspase-1 activation using immunoblot. […] To further confirm the mechanism of action of NRTIs, we investigated whether they directly bind to NLRP3/NLRC4 complex in a reconstituted system. We treated flagellin transfected BMDMs with free and biotin labeled D4T and AZT and pulled down biotin.

RPE degeneration [4] = conditions: intraperitoneal administration; previously reported; cited from earlier work
NLRC4 inflammasome = assay: Flagellin-induced caspase-1 activation in wild type BMDM pre-treated with NRTIs, immunoblot; type: cell-based, mouse; conditions: NRTI at 100 μM for 1 hour, flagellin transfection 3 μg/ml (FIG. 27)
Method: FIG. 27. NRTI block Flagellin induced NLRC4 inflammasome in BMDM. Wild type BMDM cells were pre-treated with exemplary NRTIs (D4T, 3TC) at 100 μM for 1 hour, and then stimulated with flagellin transfection (3 μg/ml). Supernatant and cell lysate were collected for Caspase-1 detection. […] The caspase-1 (p20) bands are indicated with black arrow.
FIG. 28. NRTI (3TC) blocks flagellin-induced NLRC4 inflammasome in a dose dependent manner. Wild type BMDM cell were pre-treated with indicated dose of NRTI (3TC) for 1 hour, and then stimulated with Flagellin transfection (3 μg/ml). Supernatants were collected for Caspase-1 detection. […] The caspase-1 (p20) bands are indicated with black arrow.
FIG. 31. Modified NRTIs (K8, K9) block flagellin-induced NLRC4 inflammasome in BMDM. Wild type BMDM cell were pre-treated with regular NRTI (D4T, 3TC), the modified NRTIs 3-Methyl-3TC (K9) or 2-Ethyl-AZT (K8), or NLRP3 inhibitors (MCC950, CY-09) for 1 hour, and then stimulated with flagellin transfection (3 μg/ml). Supernatants were collected for secreted caspase-1 detection. […] The caspase-1 (p20) bands are indicated with black arrow.
Nucleoside reverse transcriptase inhibitors (NRTIs) are HIV therapeutics that inhibit retrovirus replication. We have previously shown that NRTIs inhibit P2X7-mediated NLRP3 inflammasome activation by an endogenous retroelement Alu RNA (SEQ ID NO: 86). Activation of NLRP3 inflammasome by Alu RNA (SEQ ID NO: 86) causes the death of retinal pigment epithelium (RPE) in geographic atrophy, a severe form of AMD. […] Currently, multiple NLRP3 inflammasome inhibitors such as MCC950, CY09 are available however, there are no inhibitors of NLRC4. So, a need exists to develop inhibitors of NLRC4 inflammasome to study NLRC4 driven diseases. Here, we show for the first time that NRTIs block flagellin induced NLRC4 inflammasome. We pretreated flagellin transfected BMDMs with DT4 and 3TC to examine caspase-1 activation.
NLRC4 oligomerization is another hallmark of inflammasome activation where high-molecular mass NLRC4 protein complexes are assembled. […]

[5] = target: T1, mouse NLR family CARD domain containing 4 (Nlrc4) (mouse, UniProt Q3UP24 1-1024); assay: immunofluorescence of endogenous ASC specks and NLRC4 puncta in SINE RNA-transfected BMDMs
T1 construct: Endogenous protein of mouse BMDM / iBMDM
T1 sequence (Q3UP24 whole entry, the tested form may be a part): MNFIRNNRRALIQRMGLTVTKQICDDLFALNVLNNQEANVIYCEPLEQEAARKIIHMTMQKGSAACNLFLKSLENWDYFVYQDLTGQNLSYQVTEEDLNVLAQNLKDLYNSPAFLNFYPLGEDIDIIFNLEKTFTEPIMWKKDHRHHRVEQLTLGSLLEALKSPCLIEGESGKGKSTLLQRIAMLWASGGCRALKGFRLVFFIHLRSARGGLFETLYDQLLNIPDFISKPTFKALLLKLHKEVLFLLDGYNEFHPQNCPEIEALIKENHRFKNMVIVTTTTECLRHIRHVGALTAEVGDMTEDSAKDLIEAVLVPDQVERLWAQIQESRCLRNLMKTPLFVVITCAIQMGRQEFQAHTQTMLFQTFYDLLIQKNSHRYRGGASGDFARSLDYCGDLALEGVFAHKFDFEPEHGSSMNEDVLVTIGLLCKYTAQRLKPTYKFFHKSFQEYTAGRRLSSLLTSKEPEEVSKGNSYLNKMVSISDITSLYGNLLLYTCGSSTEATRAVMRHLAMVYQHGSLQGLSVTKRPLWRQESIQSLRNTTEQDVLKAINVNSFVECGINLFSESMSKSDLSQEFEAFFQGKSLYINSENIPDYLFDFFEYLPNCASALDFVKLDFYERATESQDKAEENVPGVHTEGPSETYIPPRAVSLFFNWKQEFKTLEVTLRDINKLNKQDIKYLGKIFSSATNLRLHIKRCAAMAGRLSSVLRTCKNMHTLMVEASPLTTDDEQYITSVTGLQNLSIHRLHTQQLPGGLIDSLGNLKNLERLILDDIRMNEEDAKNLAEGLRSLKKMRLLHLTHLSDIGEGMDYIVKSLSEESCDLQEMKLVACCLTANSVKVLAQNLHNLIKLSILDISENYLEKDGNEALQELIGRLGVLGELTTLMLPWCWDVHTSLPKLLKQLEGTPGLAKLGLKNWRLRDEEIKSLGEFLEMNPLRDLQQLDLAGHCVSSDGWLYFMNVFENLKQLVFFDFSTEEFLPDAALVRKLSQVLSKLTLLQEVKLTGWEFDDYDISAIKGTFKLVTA
Method: FIGS. 3A and 3B. SINE RNA-induced ASC oligomerization is dependent on NLRC4 (BMDM). FIG. 3A. Immunofluorescence images of endogenous ASC specks and NLRC4 puncta in BMDMs after transfected with Alu (SEQ ID NO: 86) or B2 (SEQ ID NO: 88) RNA or transfection reagents only (Mock). […] Moreover, NLRC4 proteins assembled as puncta, and co-resided with ASC specks. FIG. 3B. ASC oligomerizations were evaluated in wild-type and Nlrc4^{-/-} BMDMs through cross-linking and western blot. […] The bands of oligomeric ASC protein were indicated by black arrow.
The activated NLRC4 inflammasome undergoes oligomerization by assembling into high-molecular mass multiprotein complexes. We first investigated in situ assembling of NLRC4 and apoptosis speck (ASC) like protein complexes in response to SINE RNA treatment of BMDMs. Immunofluorescence studies show increased NLRC4 and ASC specks in SINE RNA-treated BMDMs compared to mock-treated cells (FIG. 3A). To assess NLRC4 inflammasome assembly, WT and NLRC4 KO BMDM cells were treated with Alu RNA (SEQ ID NO: 86). Disuccinimidyl suberate (DSS) cross-linked lysates were resolved using denaturing SDS-PAGE to detect ASC oligomers and cell lysates were resolved using native polyacrylamide gel electrophoresis (NATIVE-PAGE) to detect NLRC4 oligomerization. […] NLRC4/ASC oligomerization is essential for the cleavage of pro-caspase-1 into its active form p20 and IL-1β release.

Which “Alu RNA induced RPE degeneration in vivo, effect of siRNA” value (RPE degeneration [1]) does the source give for “siRNA for Ddx17: siRNA for Ddx17: GGCUAGAUGUGGAAGAUGU; SEQ ID NO: 95, injected in mice (chemistry not fully specified)” here?
The value was “blocked”.

What about the “Alu RNA induced ASC oligomerization, THP1 cells” value (ASC oligomerization [2]) of the same molecule?
The value was “blocked”.

And the “Alu RNA induced IL-1β release, THP1 cells, ELISA” value (IL-1β)?
Its value is “blocked”.

With “NLRC4 siRNA: SMARTPOOL siRNA for NLRC4: CAACUGGGCUCCUCUGUAA; SEQ ID NO: 93 (listed as RNA, chemistry not given here)” as the molecule, how does the “Alu RNA induced RPE degeneration in vivo, effect of siRNA” value (RPE degeneration [1]) read?
Its value is “blocked”.

What about the “Alu RNA induced ASC oligomerization, human RPE cells” value (ASC oligomerization [3]) of the same molecule?
The value was “blocked”.

What about the “Alu RNA induced ASC oligomerization, human RPE cells” value (ASC oligomerization [3]; listed as SMARTPOOL siRNA for NLRC4) of the same molecule?
The value was “reduced”.

Which “phosphorylation of NLRC4 after Dicer1 knockdown” value (p-NLRC4 and caspase-1; WT BMDMs (FIG. 20A)) does the source give for “siDICER: siRNA for Dicer 1: GCAGUUGUCCUAAACAGAU; SEQ ID NO: 92 (listed as RNA, chemistry not given here)” here?
Its value is “induced the phosphorylation of NLRC4”.

And the “caspase-1 activation after Dicer1 knockdown” value (p-NLRC4 and caspase-1; WT BMDMs (FIG. 20B))?
Its value is “induced the activation of caspase-1”.

For `Cc1cn([C@H]2C[C@H](N=[N+]=[N-])[C@@H](CO)O2)c(=O)[nH]c1=O` [AZT, 3′-deoxy-3′-azidothymidine 1-[(2R,4S,5S)-4-Azido-5-(hydroxymethyl)oxolan-2-yl]-5-methylpyrimidine-2,4-dione], which “binding of biotin-labeled NRTI to NLRC4 and NLRP3” value (NLRP3/NLRC4 complex) is on record?
The value was “interacted with NLRP3 and NLRC4; also recorded: could directly bind to NLRC4 and NLRP3 protein”.

What about the “Alu RNA induced RPE degeneration in mice” value (RPE degeneration [4]) of the same molecule?
The value was “prevented”.

With `Cc1cn([C@H]2C=C[C@@H](CO)O2)c(=O)[nH]c1=O` [D4T, 1-[(2R,5S)-5-(hydroxymethyl)-2,5-dihydrofuran-2-yl]-5-methyl-1,2,3,4-tetrahydropyrimidine-2,4-dion] as the molecule, how does the “binding of biotin-labeled NRTI to NLRC4 and NLRP3” value (NLRP3/NLRC4 complex) read?
The value was “interacted with NLRP3 and NLRC4; also recorded: could directly bind to NLRC4 and NLRP3 protein”.

And the “flagellin induced caspase-1 activation” value (NLRC4 inflammasome)?
The value was “blocked; also recorded: reduced”.

What about the “Alu RNA induced RPE degeneration in mice” value (RPE degeneration [4]) of the same molecule?
Its value is “prevented”.

B1: mouse apoptosis-associated speck-like protein containing a CARD (ASC) (other, UniProt Q9EPB4 1-193, looked up)
chain: MGRARDAILDALENLSGDELKKFKMKLLTVQLREGYGRIPRGALLQMDAIDLTDKLVSYYLESYGLELTMTVLRDMGLQELAEQLQTTKEESGAVAAAASVPAQSTARTGHFVDQHRQALIARVTEVDGVLDALHGSVLTEGQYQAVRAETTSQDKMRKLFSFVPSWNLTCKDSLLQALKEIHPYLVMDLEQS
notes: Endogenous protein of mouse BMDM
Does B1 bind [5]?
Result: binds
